Here are results for two molecules from paper PMC5318439, “The Novel Toll-Like Receptor 2 Agonist SUP3 Enhances Antigen Presentation and T Cell Activation by Dendritic Cells” (Frontiers in Immunology, 2017).

Where a SMILES comes first, the peptide text is derived from it. The star is where a group is joined. X1 = CCCCCCCCCCCCCCNC(=O)OC[C@H](C*)OC(=O)NCCCCCCCCCCCCCC; Palmitoyl = CCCCCCCCCCCCCCCC(=O)*

One assay relates to Tlr2^−/− RAW 264.7 cells. Kind of assay: TNFα production by Tlr2−/− RAW 264.7 cells (TLR2 specificity). It counts as cell-based. Particulars: 500 nM, 8 h. As for the experimental part:
Tlr2^−/− RAW 264.7 cells were generated by lentiviral CRISPR-Cas9 system as described previously ([36]). Briefly, target guide sequences (5′-[…]-3′, 3′-[…]-5′) designed by Genome Engineering 3.0 were ligated into lentiviral vector lentiCRISPR (Addgene 52961). Then lentiCRISPR as well as packaging plasmids pMD2.G (Addgene 12259) and psPax2 (Addgene 12260) were co-transfected into 293FT cells by CaCl2 (12.5 mM) for virus packaging. Fresh cell culture medium was changed 12 h post-transfection. After another 72 h, 293FT cell culture supernatant containing virus was harvested, filtered, and concentrated. Then, RAW 264.7 cells were infected by the virus (~5 × 10^5 TU/mL) with the presence of 8 µg/mL polybrene (Sigma H9268). […]
Splenic DCs (5 × 10^5 cells/mL) were stimulated by Pam3 (200 nM), SUP3 (200 nM), or CpG ODN 1668 (20 nM; Adipogen IAX-200-001) in the GM-CSF (20 ng/mL) supplemented medium for indicated periods. […] Cytokines (IL-6, eBioscience 88-7064; TNFα, eBioscience 88-7324; IL-12p40, BioLegend 431604), chemokine (MIP1α, R&D Systems DY450-05), and total IgM (eBioscience, 88-50470) were quantified by ELISA kits following the instructions of manufacturers.
Figure 1 Specificity and activity of novel TLR2 agonist SUP3. […] The production of cytokines IL-6 and TNFα in culture supernatant was determined by ELISA. *p < 0.05, ****p < 0.0001, “n.s.” indicates statistically non-significant.

The next assay deals with splenic CD8^+ cDCs. The assay can be described thus: CD40 and CD86 expression on splenic CD8+ cDCs after i.v. administration. It counts as in vivo, mice. To be noted: 2 nmol per mouse i.v., 1 h. On the procedure: Figure 4 SUP3 stimulated maturation of CD8^+ conventional dendritic cells (cDCs). (A) Purified CD8^+ cDCs were treated with SUP3 (200 nM) or Pam3 (200 nM) in the presence of granulocyte-macrophage colony-stimulating factor (GM-CSF) (20 ng/mL) for 24 h. The surface expression of costimulatory and major histocompatibility complex (MHC) molecules were then analyzed by flow cytometry. Representative data from three independent experiments were shown. “Isotype” represented relative isotype antibody staining of Pam3 or SUP3 stimulated cells. (B) SUP3 (2 nmol per mouse), Pam3 (2 nmol per mouse), or PBS were i.v. injected into mice for 1 h. Splenic CD8^+ cDCs were enriched, and surface expression of CD40 and CD86 was analyzed by flow cytometry. Representative data from two independent experiments with three mice for each group were shown. (C) Purified CD8^+ cDCs were treated with SUP3 (200 nM) or Pam3 (200 nM) for indicated periods (0~120 min), and western blot analysis was performed with the cell lysate for phosphorylated p65 (p-p65), IκBα, p-ERK, ERK, p-JNK, JNK, p-p38, and p38. Blot of p38 was also regarded as loading control. (D) Purified CD8^+ cDCs were treated with CpG 1668 (20 nM), SUP3 (200 nM), or Pam3 (200 nM) in the presence of GM-CSF (20 ng/mL). Supernatants were harvested 24 and 48 h post-stimulation, and cytokines were measured by ELISA. […]

Turning to Pam3CSK4 [reference compound], the “TNFα secretion by Tlr2−/− RAW cells” value in the assay with Tlr2^−/− RAW 264.7 cells is reported as “no secretion of TNFα”. Besides, the “expressions of CD40 and CD86 on splenic CD8+ cDCs in vivo” value with splenic CD8^+ cDCs is “increased”.
For the molecule `CCCCCCCCCCCCCCCC(=O)N[C@@H](CSC[C@@H](COC(=O)NCCCCCCCCCCCCCC)OC(=O)NCCCCCCCCCCCCCC)C(=O)NCC(=O)N[C@@H](CCCCN)C(=O)N[C@@H](CCCCN)C(=O)N[C@@H](CCCCN)C(=O)O` [SUP3, (2S,5S,8S,14R,18R)-2,5,8-tris(4-aminobutyl)-4,7,10,13,21-pentaoxo-14-palmitamido-18-((tetradecylcarbamoyl)oxy)-20-oxa-16-thia-3,6,9,12,22-pentaazahexatriacontan-1-oic acid] (Palmitoyl-C(X1)GKKK-OH), the “TNFα secretion by Tlr2−/− RAW cells” value in the assay on Tlr2^−/− RAW 264.7 cells is recorded as “no secretion of TNFα”. The “expressions of CD40 and CD86 on splenic CD8+ cDCs in vivo” value with splenic CD8^+ cDCs was “increased”.
